Key:
[1] = Tryptophan fluorescent binding assay, 3POPC/1POPG vesicles; details: 50 μM peptide, PBS pH 7.4
Method: (§1) In brief, 50 μM peptides were fixed and incubated with titrated POPC vesicles (black) or 3POPC/1POPG vesicles (grey) at concentrations of 0, 12.5, 25, 50, 100, 250, 500, 1000, 2500, and 5000 μM in phosphate buffered saline (1X, pH 7.4). The lipid concentration that causes 50% peptide binding was determined using a tryptophan fluorescent binding assay and the values are shown as lipid per peptide.
(§2) The lipids 1-palmitoyl-2-oleoyl-sn-glycero-3-phosphocholine (POPC), 1-palmitoyl-2-oleoyl-snglycero-3-phospho-(1′-rac-glycerol) (POPG) were purchased from Avanti Polar Lipids and dissolved in chloroform. Large unilamellar vesicles (LUVs) were produced by extrusion through 100 nm pore filter using an extruder and filters purchased from Avanti Polar Lipids.
(§3) Peptides (50 μM) and POPC/POPG LUVs (600 μM) were prepared in 10 mM phosphate buffer (pH 7.0). The solutions were incubated and measured after 60 minutes. Excitation was fixed at 280 nm (slit 9 nm) and emission was collected from 300 to 450 nm (slit 9 nm). The spectra were recorded using a Synergy H1 Hybrid Multi-Mode Reader (FIG. 3A) and Cytation™ 5 Cell Imaging Multi-Mode Reader (FIG. 2) from BioTek and were averaged over 3 scans.
(§4) Table 3 illustrates the lipid concentration-induced 50% peptide binding onto a liposome. 50 μM peptide was fixed and incubated with titrated lipid (POPC vesicles or 3POPC/1POPG vesicles) at concentrations of 0, 12.5, 25, 50, 100, 250, 500, 1000, 2500, and 5000 μM in phosphate buffered saline (1X, pH 7.4). The lipid concentration that causes 50% peptide binding was determined using tryptophan fluorescent binding assay and the values are shown as lipid per peptide. IN-terminus is free, C-terminus: —W—NH2.

[2] = tested on: MCF-10A (human breast epithelial cell); assay: cells; details: read-out: IC50 MCF-10A; 72 hr, MTT
Source text: HMLER (human mammary endothelial cancer cells), HMLER-shEcad (human mammary endothelial cancer stem cells), and MCF-10A (healthy human mammary endothelial) cells were maintained in Mammary Epithelial Cell Growth Medium (MEGM) with supplements and growth factors: bovine pituitary extract (BPE), hydrocortisone, human epidermal growth factor (hEGF), insulin, and gentamicin/amphotericin-B. HEK293T (human embryonic kidney cell), and U2OS (homo sapiens bone osteosarcoma) cells were maintained in Dulbecco's Modified Eagle's Medium (DMEM) with a final concentration of 10% fetal bovine serum. The cells were grown in T75 flask at 310 K in a humidified atmosphere containing 5% CO2.
The colourimetric MTT (3-(4,5-dimethylthiazol-2-yl)-2,5-diphenyltetrazolium bromide) assay was used to determine the toxicity of the anti-cancer peptides and conventional anti-cancer drugs. 5×10^3 cells were seeded in each well of a 96-well microplate. The cells were incubated overnight. Elevated concentrations of the compounds (0, 0.1, 0.2, 0.4, 0.8, 1.6, 3.1, 6.3, 12.5, 25, 50 and 100 μM) were added and incubated for 72 hr with a total volume 200 μL. The stock solutions of the compounds were prepared as 5 mM solutions in DMSO and diluted using media or in pure water. The final concentration of DMSO in each well was either 0.5% or 0% and this amount was present in the untreated control. After 72 hr, 20 μL of a 4 mg/mL solution of MTT in PBS was added to each well, and the plate was incubated for an additional 4 hr. The MEGM/MTT mixture was aspirated and 100 μL of DMSO was added to dissolve the resulting purple formazan crystals. The absorbance of the solutions in each well was read at 550 nm wavelength. Absorbance values were normalized to either DMSO-containing or non DMSO-containing control wells and plotted as concentration of test compound versus % cell viability. ICso values were interpolated from the resulting dose dependent curves.
The peptides were screened against several different human cell lines and their cytotoxicity were determined. Cell lines utilised include MCF-10A (human breast epithelial cell), HMLER (human breast cancer bulk cell), HMLER-shEcad (human breast cancer stem cell), HEK293T (human embryonic kidney cell), and U2OS (human bone osteosarcoma).

[3] = tested on: HEK293T (human embryonic kidney cell); assay: MTT cytotoxicity assay, HEK293T; format: cell-based; details: 72 hr, MTT; read-out: IC50 HEK293T
[4] = Tryptophan fluorescent binding assay, POPC vesicles; details: 50 μM peptide, PBS pH 7.4
Method: as §1, §2, §3, §4

[5] = tested on: U2OS (human bone osteosarcoma); assay: MTT cytotoxicity assay, U2OS; format: cell-based; details: 72 hr
[6] = ANTS/DPX liposome leakage assay, 3POPC/1POPG vesicles; format: biochemical; details: 0.5 mM vesicles
Method: (§5) In brief, 0.5 mM POPC vesicles (grey) or POPC:POPG vesicles (ratio 3:1, black) were incubated with peptide concentrations of 0, 0.02, 0.04, 0.08, 0.16, 0.32, 0.64, 1.25, 2.5, 5, 10, and 20 μM in each A) hydrochloric acid-adjusted phosphate buffered saline (1X, pH 4.8) and B) phosphate buffered saline (1X, pH 7.4).
as §2
(§6) 5 mM ANTS (8-aminonaphthalene-1,3,6-trisulfonic acid, disodium salt) and 12.5 mM DPX (p-xylene-bis-pyridinium bromide) were entrapped in 0.1 μm diameter extruded vesicles with lipids. Gel filtration chromatography using a Sephadex G-100 (GE Healthcare Life Sciences Inc) was used to remove external free ANTS/DPX from LUVs with entrapped contents. LUVs were diluted to 0.5 mM and used to measure the leakage activity by addition of aliquots of peptides. Leakage was measured after 3 h incubation. 10% Triton was used as the positive control to measure the maximum leakage of the vesicle. Fluorescence emission spectra were recorded using excitation and emission wavelength of 350 nm and 510 nm for ANTS/DPX using a BioTek Synergy H1 Hybrid Multi-Mode Reader.
(§7) Table 4 illustrates peptide concentration-induced 50 ANTS/DPX liposome leakage. 0.5 mM POPC and 3POPC/1POPG vesicles were fixed and incubated with titrated peptide concentration (0, 0.02, 0.04, 0.08, 0.16, 0.32, 0.64, 1.25, 2.5, 5, 10, and 20 μM) each in phosphate buffered saline (1X, pH 7.4) and hydrochloric acid-adjusted phosphate buffered saline (1X, pH 4.8). The values are shown as lipid per peptide. IN-terminus is free, C-terminus: —W—NH2.

[7] = ANTS/DPX liposome leakage assay, POPC vesicles; format: biochemical; details: 0.5 mM vesicles
Method: as §5, §2, §6, §7

[8] = tested on: HMLER (human breast cancer bulk cell); assay: MTT cytotoxicity assay, HMLER; format: cell-based; details: 72 hr, MTT; read-out: IC50 HMLER
[9] = tested on: HMLER-shEcad (human breast cancer stem cell); assay: MTT cytotoxicity assay, HMLER-shEcad; format: cell-based; details: 72 hr, MTT; read-out: IC50 HMLER-shEcad

Sequence	Lipid Concentration-induced 50% Peptide Binding (L/P) 3POPC/1POPG Vesicle [1] [L/P]	IC50 [2] [µM]	IC50 [3] [µM]	Lipid Concentration-induced 50% Peptide Binding (L/P) POPC Vesicle [4] [L/P]	IC50 [5] [µM]	Peptide Concentration-induced 50% ANTS/DPX leakage at pH 4.8 (L/P) 3POPC/1POPG Vesicle [6] [L/P]	Peptide Concentration-induced 50% ANTS/DPX leakage at pH 7.4 (L/P) 3POPC/1POPG Vesicle [6] [L/P]	Peptide Concentration-induced 50% ANTS/DPX leakage at pH 4.8 (L/P) POPC Vesicle [7] [L/P]	Peptide Concentration-induced 50% ANTS/DPX leakage at pH 7.4 (L/P) POPC Vesicle [7] [L/P]	IC50 [8] [µM]	IC50 [9] [µM]
GLLDLLELLLHAAG [DEH]	1.50	20.2 ± 6.72	10.5 ± 4.67	0.75	36.5 ± 3.92	193	548	63	620	5.35 ± 1.91	3.6 ± 0.42
GLLHLLKLLLEAAG [HKE]	0.25	7.6 ± 0.42	5.15 ± 0.64	0.75	16 ± 0.78	94	365	173	692	2.7 ± 0.28	1.9 ± 0.42
GLLELLKLLLEAAG [EKE]	1.63	8.8	5.15 ± 0.21	2.75	8 ± 0.71	438	657	75	738	1.8 ± 0.28	1.3 ± 0.14
GLLDLLHLLLKAAG [DHK]	0.38	5.05 ± 1.34	7.3 ± 0.42	0.20	20.4 ± 2.05	183	469	47	747	1.75 ± 0.49	1.02 ± 0.12
GLLELLKLLLKAAG [EKK]	0.63	1.7 ± 0.11	3.35 ± 0.49	1.50	12.2 ± 1.84	219	235	60	1095	1.72 ± 0.21	1.19 ± 0.4
GLLKLLKLLLHAAG [KKH]	0.48	1.75 ± 0.35	4 ± 0.28	0.83	13.3 ± 0.99	49	227	164	2119	2.4 ± 0.85	2.2 ± 0.42

From patent US20230372433A1, “NANOPARTICLE FOR ANTI-CANCER PEPTIDES AND USES THEREOF” (KING'S COLLEGE LONDON, priority 2020, published 2023)
